Measurements as given in patent US20130225611A1, “Compositions and Methods for Reducing Cancer Cell Proliferation and Modulating Importin-Beta Function” (THE REGENTS OF THE UNIVERSITY OF CALIFORNIA, priority 2011, published 2013).

Columns and labels:
[1] = test system: nuclear import mediated by transportin; assay: nuclear import of M9-YFP in permeabilized HeLa cells; assay type: cell-based, human; conditions: permeabilized HeLa cells plus Xenopus egg extract
transportin = target: T1, transportin (Homo sapiens, UniProt Q92973); assay: fluorescent thermal shift assay (Sypro Orange), transportin; assay type: binding; conditions: 2 μM protein, 50 μM importazole
T1 construct: made in house; host or cells: SG13 cells (E. coli)
T1 sequence (Q92973 1-898): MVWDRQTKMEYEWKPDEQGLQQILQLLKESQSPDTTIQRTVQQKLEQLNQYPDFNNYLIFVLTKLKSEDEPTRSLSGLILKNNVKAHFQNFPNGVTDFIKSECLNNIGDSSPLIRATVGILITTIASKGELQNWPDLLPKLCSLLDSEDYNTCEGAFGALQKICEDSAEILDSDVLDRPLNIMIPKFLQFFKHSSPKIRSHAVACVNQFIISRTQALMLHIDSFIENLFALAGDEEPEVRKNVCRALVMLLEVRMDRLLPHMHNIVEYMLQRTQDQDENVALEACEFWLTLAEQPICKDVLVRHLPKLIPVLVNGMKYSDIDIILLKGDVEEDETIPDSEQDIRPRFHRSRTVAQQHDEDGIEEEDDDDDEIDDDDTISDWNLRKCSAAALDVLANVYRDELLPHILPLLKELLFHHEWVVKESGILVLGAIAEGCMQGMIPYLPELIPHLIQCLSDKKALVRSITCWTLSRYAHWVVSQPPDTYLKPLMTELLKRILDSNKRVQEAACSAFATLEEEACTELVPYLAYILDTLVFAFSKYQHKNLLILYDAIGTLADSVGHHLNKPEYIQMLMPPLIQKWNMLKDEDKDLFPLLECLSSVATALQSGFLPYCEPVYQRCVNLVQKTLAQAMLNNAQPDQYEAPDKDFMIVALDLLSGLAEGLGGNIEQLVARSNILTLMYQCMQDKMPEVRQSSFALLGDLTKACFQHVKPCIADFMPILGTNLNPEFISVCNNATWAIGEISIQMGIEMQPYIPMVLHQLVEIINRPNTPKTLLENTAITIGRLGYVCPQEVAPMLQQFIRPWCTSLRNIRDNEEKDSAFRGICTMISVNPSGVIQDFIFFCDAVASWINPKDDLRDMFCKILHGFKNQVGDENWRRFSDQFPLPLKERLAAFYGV
Procedure: (§1) Experiments were performed using Applied Biosystems StepOnePlus™ Real-Time polymerase chain reaction (RT-PCR) System. Protein stocks were diluted in PBS and added 70% v/v to a Microamp® Fast 96-well Reaction Plate and maintained on ice. Compounds (importazole and control compound 3016) were then added at 30% v/v in 3% DMSO. Freshly prepared 100× water based-dilution of Sypro® Orange Protein Gel Stain was then added at 1% v/v to reach a final reaction volume of 20 μl. Samples were mixed by gentle pipetting. After sealing the plates with Microamp™ Optical Adhesive Film, the plate was subjected to a heating cycle composed of a 10 sec prewarming step at 25° C. and a gradient between 25° C. and 95° C. with a 0.3° C. ramp. Data was analyzed using the StepOnePlus™ Software v2.1.

[2] = test system: importin-β/RanGTP-mediated nuclear import; assay: nuclear import of GFP-NLS reporter in permeabilized HeLa cells; assay type: cell-based, human; conditions: 100 μM importazole, permeabilized HeLa cells plus Xenopus egg extract
Procedure: Because importazole binds importin-β and affects the RanGTP/importin-β interaction, importazole was tested to determine whether it inhibits the nuclear import of any protein bearing a classical nuclear localization signal (NLS). This was first tested using permeabilized HeLa cells, in which nuclear import of a GFP-NLS reporter can be reconstituted in vitro. Digitonin-permeabilized cells were incubated with a GFP-NLS reporter plus Xenopus laevis egg extracts as a source of soluble transport factors including Ran, importin-α, and importin-β.
HeLa cells were permeabilized and treated with an import reporter and cytosol from Xenopus laevis […] as described by Adam et al. (1990) J. Cell Biol. 111:807-816.

RanGTP = target: T2, RanGTP (Homo sapiens, UniProt P62826, Q69L); assay: fluorescent thermal shift assay (Sypro Orange), RanGTP (RanQ69L); assay type: binding; conditions: 2 μM RanQ69L, 50 μM importazole
T2 construct: made in house; host or cells: SG13 cells (E. coli)
Procedure: as §1

CRM1 = target: T3, CRM1 (Homo sapiens, UniProt O14980); assay: fluorescent thermal shift assay (Sypro Orange), CRM1; assay type: binding; conditions: 2 μM protein, 50 μM importazole
T3 construct: made in house; host or cells: SG13 cells (E. coli)
Procedure: as §1

[3] = target: T4, CFP-Ran and YFP-importin-β (Homo sapiens, UniProt Q14974); assay: pull-down of CFP-Ran with S-tagged YFP-importin-β; assay type: binding; conditions: importazole 200 μM
T4 construct: made in house; host or cells: BL21 cells (E. coli)
Procedure: For pulldown experiments to detect interaction between CFP-Ran and YFP-importin-β, all reactions were performed in buffer consisting of PBS+2 mM MgCl2, 5% glycerol, 0.01% NP-40, and 1.0 mM DTT. Reaction buffer was combined with the following components in this order: CFP-Ran, RCC1, BSA, GDP or GTP, importazole or 100% DMSO, and YFP-importin-β, yielding the following final concentrations: CFP-Ran: 2.5 nM, RCC1: 20 nM, BSA: 0.1 mg/ml, GDP or GTP: 200 μM, importazole: 200 μM, […]: 5.0 nM. Reactions were incubated for 10 min at room temperature, […] of S-protein agarose was added, and then incubated for an additional 30 min on a rotator before pelleting the agarose at 3,000 rpm for 1 min. The supernatant was removed followed by three washes with […] reaction buffer. The S-protein pellet was resuspended in 15 μl of sodium dodecyl sulfate-polyacrylamide gel electrophoresis (SDS PAGE) sample buffer and boiled briefly. After spinning down the S-protein pellet, 10 μl of the sample was analyzed by SDS PAGE.

microtubule asters = assay: DMSO-induced aster assembly in Xenopus egg extracts; set-up: species or system Xenopus laevis; conditions: 5% DMSO
Procedure: Xenopus laevis egg extracts were prepared as described by Hannak et al. (2006) Nat. Protoc. 1:2305-2314. For in vitro spindle assembly, Xenopus laevis sperm DNA was added to egg extracts supplemented with rhodamine-labeled tubulin. Asters were formed by addition of 5% DMSO. DNA was stained with Hoechst dye. The formation of microtubule-based structures was assessed using epifluorescence microscopy after a 30-minute room temperature incubation. In vitro microtubule polymerization and pelleting assays were performed by incubating 25 μM bovine tubulin, 1 mM GTP, and 5% DMSO in BRB80 buffer (80 mM PIPES, 1 mM MgCl2, 1 mM EGTA, pH 6.8) at 37° C. for 30 minutes. Polymerized microtubules were pelleted through a sucrose cushion, resuspended, and analyzed by SDS PAGE.

T3 sequence (O14980 whole entry, species assumed): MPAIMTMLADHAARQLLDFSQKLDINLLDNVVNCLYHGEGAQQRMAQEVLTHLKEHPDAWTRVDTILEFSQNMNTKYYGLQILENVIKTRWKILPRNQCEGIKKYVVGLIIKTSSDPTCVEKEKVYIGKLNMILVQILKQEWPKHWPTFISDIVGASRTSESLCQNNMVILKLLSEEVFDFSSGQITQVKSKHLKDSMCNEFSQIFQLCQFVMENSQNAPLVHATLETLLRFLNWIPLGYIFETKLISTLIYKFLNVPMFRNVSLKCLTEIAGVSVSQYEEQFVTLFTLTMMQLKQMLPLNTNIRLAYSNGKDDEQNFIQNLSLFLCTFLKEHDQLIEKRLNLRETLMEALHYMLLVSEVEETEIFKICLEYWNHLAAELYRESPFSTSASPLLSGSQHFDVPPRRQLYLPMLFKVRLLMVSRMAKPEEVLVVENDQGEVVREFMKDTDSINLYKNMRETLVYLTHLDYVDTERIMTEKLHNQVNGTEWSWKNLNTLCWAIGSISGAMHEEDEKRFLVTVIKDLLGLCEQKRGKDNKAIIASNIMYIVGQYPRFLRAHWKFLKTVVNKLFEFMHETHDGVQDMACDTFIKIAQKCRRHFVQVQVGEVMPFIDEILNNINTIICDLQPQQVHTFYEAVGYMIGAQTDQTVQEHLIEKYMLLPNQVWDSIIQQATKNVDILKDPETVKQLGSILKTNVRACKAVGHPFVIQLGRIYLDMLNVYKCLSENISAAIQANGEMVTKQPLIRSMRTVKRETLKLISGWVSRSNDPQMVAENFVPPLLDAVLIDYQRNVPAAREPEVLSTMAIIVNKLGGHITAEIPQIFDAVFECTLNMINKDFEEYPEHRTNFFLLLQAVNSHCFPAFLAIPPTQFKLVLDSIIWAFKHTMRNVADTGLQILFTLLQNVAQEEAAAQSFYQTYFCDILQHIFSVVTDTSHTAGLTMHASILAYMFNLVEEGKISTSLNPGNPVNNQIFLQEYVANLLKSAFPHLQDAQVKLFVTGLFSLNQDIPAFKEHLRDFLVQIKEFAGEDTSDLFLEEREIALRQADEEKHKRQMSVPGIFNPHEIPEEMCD

Q: Which results are given for `CC(Nc1nc(N2CCCC2)nc2ccccc12)c1ccccc1` (stereo not shown) [importazole, (1-phenyl-ethyl)-(2-pyrrolidin-1-yl-quinazolin-4-yl)-amine]?
A: transportin-mediated nuclear import (M9-YFP) [1]: did not block nuclear import; effect on melting curve of transportin (transportin): did not significantly affect the melting curves; nuclear import of GFP-NLS reporter [2]: blocked import; effect on melting curve of RanGTP (RanGTP): did not significantly affect the melting curves; effect on melting curve of CRM1 (CRM1): did not significantly affect the melting curves; effect on binding of CFP-RanGTP and YFP-importin-β in pull-down assays [3]: did not obviously affect the binding of the two proteins; formation of microtubule asters induced by DMSO in the extract (microtubule asters): did not impair the formation of microtubule asters
